Results published in article PMC10583824, “The rational design of ARUK2007145, a dual inhibitor of the α and γ isoforms of the lipid kinase phosphatidylinositol 5-phosphate 4-kinase (PI5P4K)” (RSC Medicinal Chemistry, 2023).
pIC50: −log10 of the molar value. Converted amounts (≈) assume the structure as drawn.

Tests used:
[1] = Turbidimetric aqueous solubility; format: physicochemical; settings: pH 7.4, turbidimetric
Procedure: (§1) ADMET experimental methods […]
Turbidimetric aqueous solubility: analysis was performed by Cyprotex Discovery. Compound in DMSO at 10 mM was serially diluted to solutions of 0.1, 0.3, 1 and 3 mM in DMSO, then further diluted 1 in 100 in buffer (0.01 M PBS, pH 7.4, 1% DMSO final). 7 replicate wells of each dilution were equilibrated for 2 hours at 37 °C before absorbance is measured at 620 nm. The solubility is estimated from the concentration of test compound that produces an increase in absorbance above vehicle control (1% DMSO in buffer). […]

[2] = system: MDCK-MDR1 cells; test: MDR1-MDCK bi-directional permeability and efflux; settings: MDCK-MDR1 cells; A2B; 10 µM
Procedure: MDR1-MDCK Permeability (bi-directional): was performed by Cyprotex Discovery. Briefly, compounds were administered at 10 µM (1% DMSO final) to the apical or basolateral side of a confluent monolayer of MDR1-MDCK cells, then incubated at 37 °C for 60 minutes before appearance on the opposite side of the monolayer was determined LC-MS/MS. The efflux ratio (ER) is calculated from the ratio of B-A to A-B permeabilities.

[3] = target: T1, PI5P4Kα (Homo sapiens, UniProt P48426); settings: for PI5P4Kα pIC50: ADP-Glo, footnote a: inconsistent replicates, value shown is upper limit; for ADP-Glo pIC50 PI5P4Kα: Table S1, two decimals, asterisk not explained
T1 sequence (P48426 1-406): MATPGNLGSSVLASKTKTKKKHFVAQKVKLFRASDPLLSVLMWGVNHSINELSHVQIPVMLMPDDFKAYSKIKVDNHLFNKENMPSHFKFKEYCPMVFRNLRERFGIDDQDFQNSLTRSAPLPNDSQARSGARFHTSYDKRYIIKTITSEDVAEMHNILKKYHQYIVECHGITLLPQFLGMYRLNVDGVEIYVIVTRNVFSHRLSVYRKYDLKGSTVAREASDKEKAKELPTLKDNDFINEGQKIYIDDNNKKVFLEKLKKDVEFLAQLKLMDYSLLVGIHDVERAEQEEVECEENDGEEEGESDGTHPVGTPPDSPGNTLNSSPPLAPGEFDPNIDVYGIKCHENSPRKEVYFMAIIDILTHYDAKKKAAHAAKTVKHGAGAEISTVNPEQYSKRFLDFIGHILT

[4] = system: PI5P4Kγ+; settings: ratio PI5P4Kα IC50 / PI5P4Kγ+ IC50, ADP-Glo
[5] = target: T1, PI5P4Kα; test: biochemical
[6] = target: T2, PI5P4Kγ+ (Homo sapiens, UniProt Q8TBX8, D138G/D197E/E133P/E135D/E153T/E196G/G139A/N195G/S132L/S134N); test: biochemical
T2 sequence (Q8TBX8 with tags, fused parts or gaps INS131LPN/S132D/E133S/S134Q/E135A/G136R/D138G/G139A/E153T/N195G/E196G/D197E): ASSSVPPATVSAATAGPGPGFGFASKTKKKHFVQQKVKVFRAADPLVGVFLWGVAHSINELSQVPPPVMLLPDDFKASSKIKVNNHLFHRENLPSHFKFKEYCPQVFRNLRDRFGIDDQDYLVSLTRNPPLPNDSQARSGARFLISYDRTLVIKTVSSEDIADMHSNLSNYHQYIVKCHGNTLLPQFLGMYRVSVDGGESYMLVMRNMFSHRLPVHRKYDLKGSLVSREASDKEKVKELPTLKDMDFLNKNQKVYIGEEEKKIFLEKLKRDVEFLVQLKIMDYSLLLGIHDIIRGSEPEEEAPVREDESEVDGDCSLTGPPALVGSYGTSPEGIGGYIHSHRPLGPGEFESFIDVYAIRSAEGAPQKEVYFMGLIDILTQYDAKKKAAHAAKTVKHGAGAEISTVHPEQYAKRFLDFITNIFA

[7] = Mouse liver microsome stability; format: in vitro ADME; settings: mouse liver microsomes half-life; read-out: MLM t½
Procedure: as §1
Mouse Microsomal stability: analysis was performed by Cyprotex Discovery. Briefly, test compounds in DMSO
protein/mL) in the presence of NADPH (1 mM) at 37 °C. Aliquots were taken at time intervals (0, 5, 15, 30 and
compound remaining, allowing the determination of the half-life for the compound.

[8] = target: T3, PI5P4Kβ (Homo sapiens, UniProt P78356); test: PI5P4Kβ ADP-Glo kinase assay
T3 sequence (P78356 1-416): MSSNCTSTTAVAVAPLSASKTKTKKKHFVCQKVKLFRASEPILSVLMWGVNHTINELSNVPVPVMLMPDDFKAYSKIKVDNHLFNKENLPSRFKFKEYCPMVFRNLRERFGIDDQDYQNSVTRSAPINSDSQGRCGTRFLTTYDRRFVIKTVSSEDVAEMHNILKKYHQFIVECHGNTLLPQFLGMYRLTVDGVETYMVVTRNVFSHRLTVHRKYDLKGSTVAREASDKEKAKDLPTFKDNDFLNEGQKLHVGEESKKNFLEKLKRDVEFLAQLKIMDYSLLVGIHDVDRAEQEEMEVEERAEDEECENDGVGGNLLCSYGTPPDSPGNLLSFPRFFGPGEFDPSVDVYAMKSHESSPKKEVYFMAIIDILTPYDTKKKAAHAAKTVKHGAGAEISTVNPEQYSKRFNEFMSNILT

[9] = target: T4, PI5P4Kγ-WT (Homo sapiens, UniProt Q8TBX8); test: InCELL Pulse cellular target engagement (thermal stabilisation) assay; settings: Hek293 cells stably expressing ePL-tagged PI5P4Kγ
T4 sequence (Q8TBX8 1-421): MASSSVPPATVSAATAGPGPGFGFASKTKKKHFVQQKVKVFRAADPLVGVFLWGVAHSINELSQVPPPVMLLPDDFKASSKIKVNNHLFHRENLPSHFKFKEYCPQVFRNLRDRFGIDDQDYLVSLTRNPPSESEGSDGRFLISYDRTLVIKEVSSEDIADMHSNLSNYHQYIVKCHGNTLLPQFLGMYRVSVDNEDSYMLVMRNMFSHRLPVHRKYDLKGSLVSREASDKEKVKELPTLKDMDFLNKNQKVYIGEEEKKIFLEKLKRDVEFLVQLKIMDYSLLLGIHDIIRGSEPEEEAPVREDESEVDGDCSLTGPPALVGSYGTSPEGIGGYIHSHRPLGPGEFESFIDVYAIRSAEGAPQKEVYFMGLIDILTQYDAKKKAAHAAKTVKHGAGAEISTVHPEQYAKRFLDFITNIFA

[10] = ADP-Glo pIC50 PI5P4Kα, Table S1, two decimals, asterisk not explained
[11] = ADP-Glo pIC50 PI5P4Kγ+, Table S1, two decimals, asterisk not explained
[12] = PI5P4Kγ+ pIC50, ADP-Glo, footnote a: inconsistent replicates, value shown is upper limit
[13] = PI5P4Kα pIC50, ADP-Glo, footnote a: inconsistent replicates, value shown is upper limit

Row | solubility at 2 h [1] [µM] | P app (A2B) [2] | PI5P4Kα pIC50 [3] | Fold-selectivity (α IC50/γ IC50) [4] | pIC50 [5, 10] | pIC50 [6, 11] | pIC50 [6, 12] | half-life at 1 µM [7] [min] | ADP-Glo pIC50 PI5P4Kβ [8] | InCELL Pulse pIC50 PI5P4Kγ-WT [9] | ADP-Glo pIC50 PI5P4Kα [3] | pIC50 [5, 13] | Structure (SMILES)
1 | 1 (≈ 0.381 µg/mL) | 6.23 10^−6 cm s^−1 | – | – | – | – | – | – | – | – | – | – | CS(=O)(=O)c1ccc(Nc2ncnc3sc(-c4ccccc4)cc23)cc1 [Compound 5]
2 | – | – | 5.9 | 63 | 5.85 | 7.65 | 7.70 | – | – | – | – | – | CS(=O)(=O)c1ccc(Nc2ncnc3sc(-c4ccncc4)cc23)cc1 [Compound 6]
3 | 30 (≈ 11.6 µg/mL) | 2.88 10^−6 cm s^−1 | 5.2 | – | – | 7.44 | 7.40 | 73.3 | 4.9 | 6.7 | – | – | Cn1cc(-c2cc3c(Nc4ccc(S(C)(=O)=O)cc4)ncnc3s2)cn1 [Compound 8]
4 | – | – | 5.3 | 130 | 5.34 | 7.46 | 7.50 | – | – | – | – | – | CS(=O)(=O)c1ccc(Nc2ncnc3sc(-c4cccnc4)cc23)cc1 [Compound 9]
5 | 30 (≈ 11.9 µg/mL) | 3.13 10^−6 cm s^−1 | 6.2 | – | 6.15 | 7.89 | 7.90 | 9.23 | 4.9 | 7.7 | – | – | Cc1cnccc1-c1cc2c(Nc3ccc(S(C)(=O)=O)cc3)ncnc2s1 [Compound 10]
6 | – | – | – | 79 | – | 7.49 | ≤ 7.50 | – | – | – | 5.58 | ≤ 5.60 | COc1cnccc1-c1cc2c(Nc3ccc(S(C)(=O)=O)cc3)ncnc2s1 [Compound 11]
7 | – | – | – | 130 | – | 7.19 | 7.20 | – | – | – | 5.08 | ≤ 5.10 | CS(=O)(=O)c1ccc(Nc2ncnc3sc(-c4ccnc(Cl)c4)cc23)cc1 [Compound 13]
8 | 3 (≈ 1.25 µg/mL) | 4.73 10^−6 cm s^−1 | 6.2 | – | 6.15 | 7.89 | 7.90 | 383 | 4.9 | 7.1 | – | – | CS(=O)(=O)c1ccc(Nc2ncnc3sc(-c4cccnc4Cl)cc23)cc1 [Compound 15]
9 | 10 (≈ 3.96 µg/mL) | 1.33 10^−6 cm s^−1 | 6.0 | – | 5.95 | 7.68 | 7.70 | 35.5 | 4.7 | 7.3 | – | – | Cc1ncccc1-c1cc2c(Nc3ccc(S(C)(=O)=O)cc3)ncnc2s1 [Compound 17]
10 | – | – | 5.5 | 0.63 | 5.45 | 5.28 | 5.30 | – | – | – | – | – | Cc1cccc(Nc2ncnc3sc(-c4cccnc4C)cc23)c1 [Compound 21]
11 | – | – | 6.6 | 5.0 | 6.55 | 7.33 | 7.30 | – | – | – | – | – | CSc1ccc(Nc2ncnc3sc(-c4cccnc4C)cc23)cc1 [Compound 25]
12 | 3 (≈ 1.09 µg/mL) | 3.7 ^d 10^−6 cm s^−1 | 6.9 | – | 6.87 | 7.71 | 7.70 | 0.94 | – | – | – | – | CSc1ccc(Nc2ncnc3sc(-c4ccncc4C)cc23)cc1 [Compound 26]
13 | – | – | 6.2 | 1.1 | 6.15 | 6.18 | 6.20 | – | – | – | – | – | COc1ccc(Nc2ncnc3sc(-c4ccncc4C)cc23)cc1 [Compound 27]
14 | – | – | 6.6 | 12 | 6.64 | 7.73 | 7.70 | – | – | – | – | – | CSc1ccc(Nc2ncnc3sc(-c4cccnc4Cl)cc23)cc1 [Compound 28]
15 | – | – | <4.3 | >980 | – | – | 7.30 | – | – | – | – | – | Cc1csc2ncnc(Nc3ccc(S(C)(=O)=O)cc3)c12 [Compound 31]
16 | – | – | 5.6 | 50 | – | – | 7.30 | – | – | – | – | – | CN(C(=O)c1csc2ncnc(Nc3ccc(S(C)(=O)=O)cc3)c12)c1ccccc1 [Compound 34]
17 | – | – | <4.3 | >250 | – | – | 6.70 | – | – | – | – | – | Cc1sc2ncnc(Nc3ccc(S(C)(=O)=O)cc3)c2c1C [Compound 35]
18 | 10 (≈ 4.17 µg/mL) | 1.33 10^−6 cm s^−1 | 6.5 | – | 6.45 | 7.93 | 7.90 | 70.8 | – | 7.4 | – | – | CS(=O)(=O)c1ccc(Nc2ncnc3cc(-c4cccnc4Cl)sc23)cc1 [Compound 37]
19 | 10 (≈ 3.85 µg/mL) | 12.9 10^−6 cm s^−1 | 7.3 | – | 7.33 | 8.06 | 8.10 | 0.44 | – | 7.3 | – | – | CSc1ccc(Nc2ncnc3cc(-c4cccnc4Cl)sc23)cc1 [Compound 39]
20 | – | – | 6.2 | 6.3 | – | – | 7.00 | – | – | – | – | – | Cc1ncccc1-c1cc2ncnc(Nc3ccc(S(F)(F)(F)(F)F)cc3)c2s1 [Compound 40]
21 | – | – | 5.5 | 5.9 | – | 6.25 | 6.30 | – | – | – | 5.48 | – | Cc1ncccc1-c1cc2ncnc(Nc3ccc4ncoc4c3)c2s1 [Compound 41]
22 | 10 (≈ 4.01 µg/mL) | 3.15 10^−6 cm s^−1 | 7.0 | – | 6.95 | 8.08 | 8.10 | 5.39 | – | – | – | – | Cc1ncccc1-c1cc2ncnc(Nc3ccc(N4CCCC4=O)cc3)c2s1 [Compound 42]
